# Test results from US9976122B2, “Methods and compositions for generating an immune response by inducing CD40 and pattern recognition receptor adapters” (BAYLOR COLLEGE OF MEDICINE, priority 2008, dated 2018).
# Key:
# human SOCS1 = experiment: Real time Q-PCR assay for human SOCS1 in DCs; format: cell-based; conditions: stimulus by itself
# Text: Total RNA was purified and reverse transcribed with random hexamers using SuperScript II RTase (Invitrogen, Carlsbad, Calif.). mRNA levels were quantified in DCs by subjecting cDNA to TaqMan PCR analysis using the GeneAmp 5700 Sequence Detection System (Applied Biosystems, Foster City, Calif.). Pre-developed sequence detection reagents (Applied Biosystems) specific for human SOCS1 and 18S rRNA, including forward and reverse primers as well as a fluorogenic TaqMan FAM-labeled hybridization probe, were supplied as mixtures and were used at 1 microliter/20 microliter PCR. Samples were run in duplicates. The level of SOCS1 expression in each sample was normalized to the level of 18S rRNA from the same sample using the comparative 2-delta delta CT method (Livak K J, Schmittgen T D. Analysis of relative gene expression data using real-time quantitative PCR and the 2(-Delta Delta C(T)) Method. Methods. 2001; 25:402-408).
# Finally, the induction of the suppressor of cytokine signaling (SOCS1) was evaluated.
# [1] = test system: Naïve CD4+CD45RA+ T cells; format: cell-based, human; conditions: restimulated with TTp30 at day 7
# human DCs = experiment: Cytokine ELISA (IL-12p70, IL-6) of culture supernatants of human monocyte-derived DCs; format: cell-based; conditions: LPS and CD40L-stimulated DCs
molecule,measurement,setting,value
Lipopolysaccharide [LPS],SOCS1 induction in DCs,human SOCS1,up-regulated
monophosphoryl lipid A [MPL],IFN-gamma production in CD4+ T cells,[1],not induced
"CD40L: CD40 ligand, a TNF family member that binds to the CD40 receptor (protein) MIETYNQTSPRSAATGLPISMKIFMYLLTVFLITQMIGSALFAVYLHRRLDKIEDERNLHEDFVFMKTIQRCNTGERSLSLLNCEEIKSQFEGFVKDIMLNKEETKKENSFEMQKGDQNPQIAAHVISEASSKTTSVLQWAEKGYYTMSNNLVTLENGKQLTVKRQGLYYIYAQVTFCSNREASSQAPFIASLCLKSPGRFERILLRAANTHSSAKPCGQQSIHLGGVFELQPGASVFVNVTDPSQVSHGTGFTSFGLLKL",IL-12p70 expression after removal of LPS stimulation,human DCs,ceased when LPS stimulation was removed
